Reference: patent publication US20240150370A1, “BICYCLIC PYRIDINE DERIVATIVE” (Sumitomo Pharma Co., Ltd., priority 0001, published 2024)
Structures can show the parent of a compound that is named as a salt.

Target: human TAAR1 receptor (Homo sapiens (Human), UniProt Q96RJ0)
Assay: Evaluation of agonist activity on human TAAR1 receptor (cAMP assay)
Type: cell-based
Conditions: cAMP in human TAAR1-expressing CHO cells, relative to 100 μM tyramine; for activation at 0.1 µM / activation at 1 µM / activation at 10 µM: CHO, 0.5 h, read-out: TAAR1 agonist activity at each concentration (%)
Protocol: TAAR1 is a G protein-coupled receptor that binds to G proteins (Gas), and activation of the TAAR1 receptor by agonists induces an increase in intracellular cAMP levels. Therefore, the agonist activity of the sample on the human TAAR1 receptor was evaluated using the cAMP assay method.
cAMP Hunter™ CHO-K1 TAAR1 Gs Cell Line, a cell expressing human TAAR1 receptor, was purchased. Human TAAR1-expressing CHO cells were seeded in a 96-well plate, and after culturing for 24 hours, a sample dissolved in DMSO was added and incubated at 37° C. for 30 minutes. A sample for cAMP measurement was prepared according to the cAMPHiRange kit protocol. The amount of cAMP produced by the sample was measured by time-resolved fluorescence using EnVision (excitation wavelength: 330 nm, fluorescence wavelength […]/665 nm).
Sample %=100×{(Csamp)−(Cblank)}/{(Ctyramine)−(Cblank)} • Csamp: count of sample, Ctyramine: count of 100 μM tyramine, Cblank: count of blank

human TAAR1 receptor, sequence (Q96RJ0 whole entry): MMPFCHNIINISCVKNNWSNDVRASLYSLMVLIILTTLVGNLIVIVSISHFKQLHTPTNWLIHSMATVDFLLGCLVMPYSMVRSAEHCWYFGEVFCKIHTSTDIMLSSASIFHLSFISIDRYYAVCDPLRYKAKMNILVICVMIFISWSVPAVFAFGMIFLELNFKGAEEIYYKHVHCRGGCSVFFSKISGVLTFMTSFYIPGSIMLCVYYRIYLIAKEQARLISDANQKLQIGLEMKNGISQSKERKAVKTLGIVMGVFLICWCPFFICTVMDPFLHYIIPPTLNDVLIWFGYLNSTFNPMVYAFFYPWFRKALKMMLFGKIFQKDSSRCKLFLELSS

Row | SMILES | activation at 0.1 µM (100 nM) | activation at 1 µM (1000 nM) | activation at 10 µM (10000 nM) | TAAR1 agonist activity at each concentration (%) (100 nM) | TAAR1 agonist activity at each concentration (%) (1000 nM) | TAAR1 agonist activity at each concentration (%) (10000 nM)
1 | CC(C)[C@H]1Oc2cccnc2[C@@H]1CN (racemic) [Example 21] | 0% | 23% | 81% |  |  | 
2 | C[C@@H](N)[C@H]1c2ncccc2O[C@@H]1C [Example 56] |  |  |  | 23% | 67% | 82%
3 | [2H]C([2H])([2H])NC[C@H]1c2ncc(F)cc2O[C@@H]1C [Example 80] | 17% | 48% | 62% |  |  | 
4 | Cc1ccnc2c1OCCC2CN (stereo not drawn) [Example 70] | 0% | 23% | 57% |  |  | 
5 | CNCC1CC(C)c2cccnc21 (stereo not drawn) [Example 78] | 0% | 5% | 27% |  |  | 
6 | Cc1ccc2c(n1)[C@H](CN)C(C)(C)O2 (single isomer, unassigned) [Example 105, dihydrochloride] | 64% | 77% | 79% |  |  | 
7 | Cc1ccnc2c1CCCC2CN (racemic) [Example 92, rac-1-(4-methyl-5,6,7,8-tetrahydroquinolin-8-yl)methanamine] | 0% | 0% | 0% |  |  | 
8 | NCC1c2nc(F)ccc2OC12CC2 (stereo not drawn) [Example 82] | 51% | 92% | 101% |  |  | 
9 | NC[C@@H]1c2ncccc2OC12CC2 (single isomer, unassigned) [Example 96, rel-1-[(3′R)-3′H-spiro[cyclopropane-1,2′-furo[3,2-b]pyridine]-3′-yl]methanamine dihydrochloride] | 3% | 28% | 66% |  |  | 
10 | NCC1CCc2c(OC3CCC3)ccnc21 (racemic) [Example 91, rac-1-[4-(cyclobutyloxy)-6,7-dihydro-5H-cyclopenta[b]pyridin-7-yl]methanamine dihydrochloride] | 0% | 14% | 49% |  |  | 
11 | C[C@H]1[C@H](C)Oc2cccnc2[C@H]1CN (racemic) [Example 64] | 0% | 7% | 40% |  |  | 
12 | C[C@@H]1Oc2cccnc2[C@H]1CN [Example 19] | 2% | 13% | 51% |  |  | 
13 | NC[C@H]1c2ncccc2O[C@H]2CCCC[C@@H]21 (racemic) [Example 33, rac-1-[(5aS,9aR,10S)-6,7,8,9,9a,10-hexahydro-5aH-[1]benzpyrano[3,2-b]pyridine-10-yl]methanamine dihydrochloride] | 4% | 22% | 52% |  |  | 
14 | NC[C@H]1CCSc2cccnc21 (single isomer, unassigned) [Example 39, dihydrochloride] | 1% | 12% | 48% |  |  | 
15 | NCC1c2ncccc2OCC12CC2 (stereo not drawn) [Example 69] | 4% | 30% | 62% |  |  | 
16 | C[C@@H]1Oc2cccnc2[C@@H]1CN [Example 20] | 33% | 88% | 107% |  |  | 
17 | C[C@H](N)[C@H]1c2ncccc2O[C@@H]1C [Example 55] |  |  |  | 31% | 75% | 87%
18 | C[C@H]1COc2cccnc2[C@@H]1CN (racemic) [Example 1, rac-1-[(3R,4S)-3-methyl-3,4-dihydro-2H-pyrano[3,2-b]pyridin-4-yl]methanamine dihydrochloride] | 2% | 18% | 54% |  |  | 
19 | CCOc1ccnc2c1CCC2CN (stereo not drawn) [Example 76] | 0% | 6% | 33% |  |  | 
20 | C[C@H]1Oc2cccnc2[C@H]1CN (racemic) [Example 36, rac-1-[(2R,3R)-2-methyl-2,3-dihydrofuro[3,2-b]pyridin-3-yl]methanamine dihydrochloride] | 0% | 20% | 67% |  |  | 
21 | C[C@@H]1[C@H](C)Oc2cccnc2[C@H]1CN (racemic) [Example 65] | 0% | 28% | 67% |  |  | 

Row | SMILES | activation at 0.1 µM (100 nM) | activation at 1 µM (1000 nM) | activation at 10 µM (10000 nM) | TAAR1 agonist activity at each concentration (%) (100 nM) | TAAR1 agonist activity at each concentration (%) (1000 nM) | TAAR1 agonist activity at each concentration (%) (10000 nM)
22 | CCCNC[C@H]1c2ncccc2O[C@@H]1C [Example 72] | 0% | 4% | 23% |  |  | 
23 | NC[C@H]1c2nc(F)ccc2OC12CC2 (single isomer, unassigned) [Example 103, rel-1-[(3'S)-5′-fluoro-3′H-spiro[cyclopropane-1,2′-furo[3,2-b]pyridine]-3′-yl]methanamine dihydrobromide] | 60% | 84% | 89% |  |  | 
24 | CC[C@@H]1COc2cccnc2[C@@H]1CN (racemic) [Example 87] | 4% | 25% | 63% |  |  | 
25 | C[C@H]1Oc2ccc(C(F)(F)F)nc2[C@@H]1CN [Example 30] | 2% | 18% | 63% |  |  | 
26 | Cc1cnc2c(c1)O[C@H](C)[C@H]2CN [Example 28] | 7% | 38% | 71% |  |  | 
27 | CC[C@H]1Oc2cccnc2[C@@H]1CN (stereo in doubt) [Example 43, rel-1-[(2R,3S)-2-ethyl-2,3-dihydrofuro[3,2-b]pyridin-3-yl]methanamine dihydrochloride] | 0% | 0% | 7% |  |  | 
28 | NCC1CSc2cccnc21 (stereo not drawn) [Example 10] | 18% | 66% | 91% |  |  | 
29 | CC[C@H]1COc2cccnc2[C@@H]1CN (racemic) [Example 86] | 1% | 8% | 40% |  |  | 
30 | CC1(C)Oc2ccc(F)nc2C1CN (racemic) [Example 106, rac-1-(5-fluoro-2,2-dimethyl-2,3-dihydrofuro[3,2-b]pyridin-3-yl)methanamine dihydrobromide] | 38% | 70% | 78% |  |  | 
31 | C[C@H]1COc2cccnc2[C@H]1CN (stereo in doubt) [Example 3, rel-1-[(3R,4R)-3-methyl-3,4-dihydro-2H-pyrano[3,2-b]pyridin-4-yl]methanamine dihydrochloride] | 0% | 1% | 9% |  |  | 
32 | NC[C@@H]1c2nc(F)ccc2OC12CC2 (single isomer, unassigned) [Example 102, rel-1-[(3′R)-5′-fluoro-3′H-spiro[cyclopropane-1,2′-furo[3,2-b]pyridine]-3′-yl]methanamine dihydrobromide] | 1% | 18% | 59% |  |  | 
33 | C[C@H]1Oc2cccnc2[C@@H]1C(C)(C)N [Example 54] | 15% | 63% | 94% |  |  | 
34 | [2H][C@]1(C)Oc2cccnc2[C@@H]1CN (stereo in doubt) [Example 57] | 32% | 72% | 79% |  |  | 
35 | C[C@H]1Oc2cc(C(F)(F)F)cnc2[C@@H]1CN [Example 31] | 1% | 3% | 12% |  |  | 
36 | C[C@H]1C[C@@H](CN)c2ncccc2S1 (racemic) [Example 13] | 4% | 31% | 63% |  |  | 
37 | CC[C@@H]1C[C@@H](CN)c2ncccc2O1 (racemic) [Example 61] | 2% | 22% | 66% |  |  | 
38 | [2H][C@]1(C)Oc2cccnc2[C@H]1CN (relative stereo) [Example 95, rel-1-[(2R,3S)-2-methyl(2-^2H)-2,3-dihydrofuro[3,2-b]pyridin-3-yl]methanamine dihydrochloride] | 59% | 90% | 96% |  |  | 
39 | Cc1ccc2c(n1)[C@@H](CN)C1(CC1)O2 (single isomer, unassigned) [Example 100, rel-1-[(3′R)-5′-methyl-3′H-spiro[cyclopropane-1,2′-furo[3,2-b]pyridine]-3′-yl]methanamine dihydrochloride] | 0% | 17% | 50% |  |  | 
40 | NCC1CCOc2ccc(C(F)(F)F)nc21 (stereo not drawn) [Example 67] | 1% | 10% | 39% |  |  | 
41 | NCC1c2nc(Cl)ccc2OC12CC2 (stereo not drawn) [Example 81] | 48% | 86% | 95% |  |  | 
42 | NCC1CCNc2cccnc21 (stereo not drawn) [Example 68] | 3% | 23% | 68% |  |  | 
